Where two headings read alike, the source gives them in different places.
Experiments:
[1] = tested on: MCF-7 subcutaneous tumors; assay: MCF-7 subcutaneous xenograft mouse model; type: in vivo; details: MCF7 sc, 250 mg/kg subcutaneous once a week
Method: (§1) Female Balb/c nude mice were used for MCF-7 and T47D tumor subcutaneous xenograft studies. At least one day before tumor cell implantation, estrogen pellets (0.18 mg, 17β-Estradiol, 60-day release, Innovative Research of America, Sarasota, FL, USA) were implanted subcutaneously. Each mouse was subcutaneously injected with 1 × 10^7 MCF-7 (ECACC) or T47D cells in the right flank, and tumor growth was monitored. The long diameter (a) and the short diameter (b) of the tumor were measured using a caliper, and the tumor volume was calculated using the following formula: V = 0.5 × a × b^2. […] Tumor volumes were evaluated twice per week. Treatment tolerability was assessed by body weight measurements and frequent observation for clinical signs of treatment-related adverse effects.
(§2) Statistical and graphical presentations were performed using IDBS XLfit and GraphPad Prism 9. For cell proliferation assays, the IC50 was calculated by fitting a dose–response curve using a nonlinear regression model with a log(inhibitor) vs response curve fit. […] P-values < 0.05 were considered statistically significant.

ERα = biological target: T1, ERα (Homo sapiens, UniProt P03372); assay: ERα degradation assay, In-Cell Western, MCF-7 WT; type: cell-based; parameters: MCF-7 wild type and Y537S mutant cells were seeded at a density of 5000 cells per well; host or cells: MCF-7; details: 24 h
T1 sequence (P03372 1-595): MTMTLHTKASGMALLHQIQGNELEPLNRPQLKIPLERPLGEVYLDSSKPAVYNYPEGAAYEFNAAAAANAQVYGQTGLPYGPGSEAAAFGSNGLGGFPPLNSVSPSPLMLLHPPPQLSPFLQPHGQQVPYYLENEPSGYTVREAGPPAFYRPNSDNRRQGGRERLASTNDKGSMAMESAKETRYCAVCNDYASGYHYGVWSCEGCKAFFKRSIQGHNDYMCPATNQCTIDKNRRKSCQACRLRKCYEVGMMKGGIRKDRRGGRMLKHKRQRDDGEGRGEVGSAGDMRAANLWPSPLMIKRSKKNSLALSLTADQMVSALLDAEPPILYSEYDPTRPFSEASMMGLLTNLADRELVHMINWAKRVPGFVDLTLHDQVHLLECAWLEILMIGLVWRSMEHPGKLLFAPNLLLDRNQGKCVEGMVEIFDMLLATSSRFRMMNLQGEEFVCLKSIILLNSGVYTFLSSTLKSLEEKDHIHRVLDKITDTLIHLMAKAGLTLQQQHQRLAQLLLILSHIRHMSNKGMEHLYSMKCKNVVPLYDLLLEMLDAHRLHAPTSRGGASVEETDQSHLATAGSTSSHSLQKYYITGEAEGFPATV
Method: MCF-7 wild type and Y537S mutant cells were seeded at a density of 5000 cells per well into flat clear bottom tissue cultured-treated 384-well plates (Greiner) in culture media and after overnight incubation cells were treated with compounds for 24 h. Then plates were fixed with 4% formaldehyde, permeabilized with ice-cold methanol, and blocked with Odyssey Blocking Buffer (LI-COR). The fixed cells were incubated with rabbit anti- ERα antibody (CST#8644S) and mouse anti-GAPDH antibody (Abcam #ab8245), washed and stained with IRDye 800 Goat anti-Rabbit IgG (Licor#926-32211) and IRDye 680 Goat anti-Mouse IgG (Licor#926-68070). ERα levels were quantitated using Sapphire RGBNIR (Azure), the acumen eX3 imaging system. […] IC50 and Emax were analyzed with IDBS XLfit.
MCF7 cells were seeded in a 384-well plate and linear-dilution compounds were administrated in duplicate for each treatment. After incubation for 24 h, Cells in the assay pate were treated as described in methods. ERα levels were quantified by immunofluorescence assay. […] Cells were dispended into 96-well plates and incubated for 24 h with compounds (100 nM) treatment. […] Cells were seeded in 384-well plates and treated with linear-dilution compounds for 7 days of incubation. Cell viability was assessed using CellTiter-Glo. Cell growth inhibition is presented as a percentage of CellTiterGlo activity relative to the vehicle control. […] Then cells in each well were collected and the targeting proteins in lysate supernatant were detected by WB
Cells were seeded at a density of 5,000 cells per well into 384-well plates and treated with linear-titration compounds in duplicate for 24 hours. ERα levels were quantified by immunofluorescence assay as described in the method. The detection signals were captured by Odyssey.

advanced breast cancer = details: cited from earlier work; for PFS: second-line
MCF7 ESR1 D538G cells = assay: Viability assay (CellTiter-Glo, 7 days), MCF7 D538G; type: cell-based, human; details: MCF-8 D538G
Method: (§3) Trypsinized cells were dispensed into 384-well plates in culture media and after overnight incubation cells were treated with compounds for 7 days. Cell viability was assessed using CellTiter-Glo (Promega) according to the manufacturer’s protocol and relative luminescence units (RLU) were measured using an Envision Multilabel Reader (Perkin Elmer). […] IC50 and Imax were analyzed with IDBS XLfit.
as §2

MCF-7 Y537S cells = assay: Viability assay (CellTiter-Glo, 7 days), MCF-7 Y537S; type: cell-based, human
Method: as §3, §2

T47D subcutaneous tumors = assay: T47D subcutaneous xenograft mouse model; type: in vivo; details: T47D sc, 250 mg/kg subcutaneous once a week
Method: as §1, §2

[2] = tested on: ER + breast cancer cell lines; assay: Proliferation assay across ER-positive cell panel; type: cell-based, human; details: 7 days
Method: as §3
MCF7 cells were seeded in a 384-well plate and linear-dilution compounds were administrated in duplicate for each treatment. After incubation for 24 h, Cells in the assay pate were treated as described in methods. ERα levels were quantified by immunofluorescence assay. […] Data are given as mean ± SEM. b The maximal ERα degradation across an ER-positive cell panel was evaluated in an In-cell Western assay. Cells were dispended into 96-well plates and incubated for 24 h with compounds (100 nM) treatment. […] Cells were seeded in 384-well plates and treated with linear-dilution compounds for 7 days of incubation. Cell viability was assessed using CellTiter-Glo. Cell growth inhibition is presented as a percentage of CellTiterGlo activity relative to the vehicle control. […] WT (e) and ER. Y537S cells (f). […] Then cells in each well were collected and the targeting proteins in lysate supernatant were detected by WB

Row | Compound | TGI [1] | ERα degradation assay Dmax [% Ful.] (ERα) | ERα degradation assay Dmax [% Veh.] (ERα) | OS (advanced breast cancer; 250 mg dose regimen ref 16) | OS (advanced breast cancer; Fulvestrant HD 500 mg ref 16) | PFS (advanced breast cancer; higher value of 6.5 vs. 5.5 (Fulvestrant HD 500 mg) ref 16) | PFS (advanced breast cancer; lower value of 6.5 vs. 5.5 (250 mg dose regimen) ref 16) | IC50 (MCF7 ESR1 D538G cells; Homo sapiens, MCF7, 168 h) | Viability assay Emax [% Ful.] (MCF7 ESR1 D538G cells) | Viability assay Emax [% Veh.] (MCF7 ESR1 D538G cells) | Viability assay Emax [% Ful.] (MCF-7 Y537S cells) | Viability assay Emax [% Veh.] (MCF-7 Y537S cells) | IC50 (MCF-7 Y537S cells; Homo sapiens, MCF7, 168 h) | TGI (T47D subcutaneous tumors) | anti-proliferation potency in ER + cell panel [2]
1 | C[C@]12CC[C@@H]3c4ccc(O)cc4C[C@@H](CCCCCCCCC[S+]([O-])CCCC(F)(F)C(F)(F)F)[C@H]3[C@@H]1CC[C@@H]2O (stereo partly drawn) [Fulvestrant] | 28.84% | 97.69 % Ful. | 56.04 % Veh. | 22.3 months | 26.4 months | 6.5 months | 5.5 months | 11.1 nM | 106.1 % Ful. | 68.57 % Veh. | 95.49 % Ful. | 65.05 % Veh. | 16.3 nM | 48.35% | –
2 | CC/C(=C(\c1ccc(O)cc1)c1ccc(OCCN(C)C)cc1)c1ccccc1 [4-OH-tamoxifen] | – | – | – | – | – | – | – | – | – | – | – | – | – | – | less potent than all tested SERDs

Source: article PMC10426190 (Breast Cancer Research : BCR, 2023)
